Laboratory results taken from patent publication US20240350522A1, “HYGROMYCIN A FOR TREATMENT OF DISEASES AND INFECTIONS” (FLIGHTPATH BIOSCIENCES, INC., priority 2021, published 2024).
“And” between values parts separate entries of the source, which are not always exact repeats. Equal entries are not always repeated. Where two headings read alike, the source gives them in different places.

Tests used:
Format in all cases: cell-based
[1] = test system: Treponema pallidum pallidum SS14 strain; experiment: T. pallidum susceptibility assay, co-culture with Sf1Ep cells, tp0574 (T47) qPCR after 7 days; conditions: for Mean T47 copies/μL, Average / Mean T47 copies/μL, experimental values: 7 days; for Mean T47 copies/μL, Average: average of 8 replicates; for Mean T47 copies/μL, experimental values: replicate wells
[2] = test system: Treponema denticola; experiment: MBC of Hyg A against Treponema denticola strains; conditions: for MBC: Treponema denticola
[3] = test system: Streptococcus salivarius ATCC13419; experiment: MBC of Hyg A against S. salivarius
[4] = test system: Parvimonas micra (ATCC 33270); experiment: MBC of Hyg A against P. micra; conditions: for MBC: ATCC33270

MIC:MBC ratio ([2]; T. denticola 33520): 0.2-1.0
MIC:MBC ratio ([2]; T. denticola 33521): 0.3-1.0
MIC:MBC ratio ([2]; T. denticola 35404): 0.1-1.0
MIC:MBC ratio ([2]; T. denticola 35405): 0.2-0.4
MIC:MBC ratio ([2]; T. denticola ASLM): 0.5-1.0
MIC:MBC ratio ([2]; T. denticola H1-T): 1.0
MIC:MBC ratio ([2]; T. denticola OTK): 0.5-1.0
MIC:MBC ratio ([2]; T. denticola SP44): 0.5-2.0
MIC:MBC ratio ([2]; T. denticola US Trep): 0.5
ratio of MBC/MIC ([2]; average for all T. denticola strains): 2.3
MIC:MBC ratio ([3]; S. salivarius 13419): 10
MIC:MBC ratio ([4]; P. micra 33270): >0.2
Structure (SMILES): CC(=O)[C@H]1O[C@@H](Oc2ccc(/C=C(\C)C(=O)N[C@@H]3[C@H](O)[C@@H](O)[C@H]4OCO[C@H]4[C@@H]3O)cc2O)[C@@H](O)[C@@H]1O [Hyg A, Hygromycin A]
Mean T47 copies/μL, Average ([1]; Hyg A 0.03 μg/ml): 2768 copies/μL
Mean T47 copies/μL, Average ([1]; Hyg A 0.06 μg/ml): 916 copies/μL
Mean T47 copies/μL, experimental values ([1]; Hyg A 0.06 μg/ml): 713 copies/μL and 883 copies/μL and 851 copies/μL and 1260 copies/μL
Mean T47 copies/μL, Average ([1]; Hyg A 0.12 μg/ml): 737 copies/μL
Mean T47 copies/μL, experimental values ([1]; Hyg A 0.12 μg/ml): 372 copies/μL and 629 copies/μL and 710 copies/μL and 787 copies/μL and 926 copies/μL and 951 copies/μL and 965 copies/μL and 552 copies/μL
Mean T47 copies/μL, Average ([1]; Hyg A 0.24 μg/ml): 516 copies/μL
Mean T47 copies/μL, experimental values ([1]; Hyg A 0.24 μg/ml): 510 copies/μL and 491 copies/μL and 572 copies/μL and 587 copies/μL and 564 copies/μL and 600 copies/μL and 441 copies/μL and 360 copies/μL
Mean T47 copies/μL, Average ([1]; Hyg A 0.48 μg/ml): 426 copies/μL
Mean T47 copies/μL, experimental values ([1]; Hyg A 0.48 μg/ml): 327 copies/μL and 435 copies/μL and 503 copies/μL and 508 copies/μL and 487 copies/μL and 453 copies/μL and 342 copies/μL and 352 copies/μL
Mean T47 copies/μL, Average ([1]; Hyg A 0.96 μg/ml): 319 copies/μL
Mean T47 copies/μL, experimental values ([1]; Hyg A 0.96 μg/ml): 150 copies/μL and 307 copies/μL and 435 copies/μL and 361 copies/μL and 405 copies/μL and 327 copies/μL and 299 copies/μL and 268 copies/μL
Mean T47 copies/μL, Average ([1]; Hyg A 1.92 μg/ml): 323 copies/μL
Mean T47 copies/μL, Average ([1]; Hyg A 3.84 μg/ml): 275 copies/μL
lowest concentration effective against growth (no significant difference to higher concentrations) ([1]; SS14 strain, ANOVA p<0.05): 1.92 µg/mL
type of effect (bactericidal/bacteriostatic) ([2]; T. denticola strains, from MBC/MIC ratio): bactericidal
MBC ([2]; ATCC35404, ATCC 35404, strain most tolerant, read-out: MBC): 5 µg/mL
MBC ([2]; T. denticola 33520, experiment 1, read-out: MBC (μg/ml) 1): 5 µg/mL
MBC ([2]; T. denticola 33520, experiment 2, read-out: MBC (μg/ml) 2): 1 µg/mL
MBC ([2]; T. denticola 33521, experiment 1, read-out: MBC (μg/ml) 1): 0.5 µg/mL
MBC ([2]; T. denticola 33521, experiment 2, read-out: MBC (μg/ml) 2): 2 µg/mL
MBC ([2]; T. denticola 35404, experiment 1, read-out: MBC (μg/ml) 1): 5 µg/mL
MBC ([2]; T. denticola 35404, experiment 2, read-out: MBC (μg/ml) 2): > 5 µg/mL
MBC ([2]; T. denticola 35405, experiment 1, read-out: MBC (μg/ml) 1): 1 µg/mL
MBC ([2]; T. denticola 35405, experiment 2, read-out: MBC (μg/ml) 2): 0.5 µg/mL
MBC ([2]; T. denticola ASLM, experiment 1, read-out: MBC (μg/ml) 1): 1 µg/mL
MBC ([2]; T. denticola ASLM, experiment 2, read-out: MBC (μg/ml) 2): 1 µg/mL
MBC ([2]; T. denticola H1-T, experiment 1, read-out: MBC (μg/ml) 1): 0.5 µg/mL
MBC ([2]; T. denticola H1-T, experiment 2, read-out: MBC (μg/ml) 2): 0.5 µg/mL
MBC ([2]; T. denticola OTK, experiment 1, read-out: MBC (μg/ml) 1): 1 µg/mL
MBC ([2]; T. denticola OTK, experiment 2, read-out: MBC (μg/ml) 2): 1 µg/mL
MBC ([2]; T. denticola SP44, experiment 1, read-out: MBC (μg/ml) 1): 5 µg/mL
MBC ([2]; T. denticola SP44, experiment 2, read-out: MBC (μg/ml) 2): 2 µg/mL
MBC ([2]; T. denticola US Trep, experiment 1, read-out: MBC (μg/ml) 1): 1 µg/mL
MBC ([2]; T. denticola US Trep, experiment 2, read-out: MBC (μg/ml) 2): 1 µg/mL
MBC ([3]; Streptococcus salivarius ATCC13419, read-out: MBC): 10 µg/mL
MBC ([3]; Streptococcus salivarius, ATCC13419, S. salivarius 13419, experiment 1, read-out: MBC (μg/ml) 1): 10 µg/mL
MBC ([3]; Streptococcus salivarius, ATCC13419, S. salivarius 13419, experiment 2, read-out: MBC (μg/ml) 2): 10 µg/mL
MBC ([4]; Parvimonas micra ATCC 33270, read-out: MBC): > 10 µg/mL
type of effect (bactericidal/bacteriostatic) ([4]; P. micra): bacteriostatic
MBC ([4]; Parvimonas micra, P. micra 33270, experiment 1, read-out: MBC (μg/ml) 1): > 10 µg/mL
MBC ([4]; Parvimonas micra, P. micra 33270, experiment 2, read-out: MBC (μg/ml) 2): > 10 µg/mL
